In patent US20040241088A1, “Method for evaluating the efficacy of certain cancer treatments” (Georgetown University, priority 2003, published 2004):

What was measured:
[1] = tested on: 17 kDa fragment of caspase 3; assay: 17 kDa fragment of caspase 3 in PANC-1 cells in vitro (Western); format: cell-based, human; details: 9 hours, Gemzar 0.8 μM, ODN 1 μM
Experimental: A. To detect the presence of the 17 kDa active caspase 3 fragment in cell cultures the following procedure was used in subsequent Examples to isolate total protein from both living and dead floating cells. The medium from the cell culture vessel was removed and reserved.
To lyse the cells, resuspend the cell pellet in 150 μl-200 μl RIPA buffer (with freshly prepared inhibitors) per 3×10^6 cells. RIPA buffer is 1×PBS, 1% NP40, 0.5% sodium deoxycholate, 0.1% SDS (this may be made in large volumes). Add inhibitors at time of use from the following stock solutions:
In a further specific embodiment of this invention, it was determined that the cleaved 17 kDa subunit can be detected in tumor and/or blood as a means of verifying the efficacy of therapy with antisense (AS) HER-2, i.e. that the apoptotic pathway is induced by AS HER-2 treatment. […]
Also evaluated in vitro was the induction of the 17 kDa fragment by the combination of the TfRscFv-LipA-AS HER-2 plus the chemotherapeutic agent Gemzar® (gemcitabine).

[2] = tested on: components of the PI3K/AKT pathway and apoptosis; assay: Western analysis of signal transduction and apoptosis proteins in PANC-1 cells; format: cell-based, human
Text: (§1) Treatment of Pancreatic Cancer (PanCa) with the tumor targeting TfRscFv-LipA-AS HER-2 complex can down-regulate HER-2 expression (even when not overexpressed), thus negatively affecting cell growth/survival and positively enhancing apoptotic pathways leading to increased tumor cell killing.
The phosphorothioate sequence specific AS HER-2, complementary to the initiation codon region (5′-TCC ATG GTG CTC ACT-3′), and the control, non-sequence specific SC (5′-CTA GCC ATG CTT GTC-3′) ODNs were synthesized and purified by reverse phase HPLC by Ransom Hill Biosciences (Ramona, Calif.). […] PANC-1 or COLO 357 cells were seeded/in a six well plate and transfected 24 hours later with the TfRscFv-LipA complex carrying 1 μM (for PANC-1) or 0.5 μM (for COLO 357) AS HER-2 or SC HER-2 ODN (negative control). The cells were transfected with either oligo alone or, to look for a synergistic effect, in combination with gemcitabine (Gemzar®). At the indicated times, the cells were harvested, lysed in RIPA buffer, protein determined, run (60 ug total protein/lane) on a 4-20% gradient polyacrylamide/SDS gel and transferred to nitrocellulose for Western analysis as described in Examples 1, 3 and 4. To detect HER-protein expression the membranes were probed with the anti-human HER-2/Neu (C-18) rabbit polyclonal Ab (Santa Cruz Biotechnology) and the signal detected by ECL (Amersham). Change in protein expression as compared to untreated cells was also ascertained for total and/or phosphorylated Akt (Ser 473), a central component in the PI3K pathway (using an anti-Human polyclonal Ab, Cell Signaling Technology),phosphorylated BAD (Ser 136), an important factor in regulation of apoptosis (using an anti-human rabbit polyclonal antibody, Cell Signaling Technology), as well as cleaved caspase 3 (Asp 175) (using the rabbit polyclonal antibody, specific for the 17 kDa subunit, Cell Signaling Technology) and PARP/cleaved PARP (poly ADP ribopolymerase, another marker of apoptosis) using an anti-human rabbit polyclonal antibody, (Cell Signaling Technology) both downstream indicators of apoptosis.

[3] = tested on: components of the PI3K/AKT pathway and apoptosis; assay: Western analysis of signal transduction and apoptosis proteins in COLO357 cells; format: cell-based; details: 8 hrs post-transfection
Text: as §1
The phosphorothioate sequence specific AS HER-2, complementary to the initiation codon region (5′-TCC ATG GTG CTC ACT-3′), and the control, non-sequence specific SC (5′-CTA GCC ATG CTT GTC-3′) ODNs were synthesized and purified by reverse phase HPLC by Ransom Hill Biosciences (Ramona, Calif.). […] PANC-1 or COLO 357 cells were seeded/in a six well plate and transfected 24 hours later with the TfRscFv-LipA complex carrying 1 μM (for PANC-1) or 0.5 μM (for COLO 357) AS HER-2 or SC HER-2 ODN (negative control). The cells were transfected with either oligo alone or, to look for a synergistic effect, in combination with gemcitabine (Gemzar®). At the indicated times, the cells were harvested, lysed in RIPA buffer, protein determined, run (60 ug total protein/lane) on a 4-20% gradient polyacrylamide/SDS gel and transferred to nitrocellulose for Western analysis as described in Examples 1, 3 and 4. To detect HER-protein expression the membranes were probed with the anti-human HER-2/Neu (C-18) rabbit polyclonal Ab (Santa Cruz Biotechnology) and the signal detected by ECL (Amersham). […]

[4] = tested on: 17 kDa cleaved caspase 3 fragment; assay: Tumor-specific localization of the 17 kDa fragment in tumor, liver and lung of PANC-1 xenograft mice; format: in vivo; details: PANC-1 tumor; ODN 10 mg/kg i.v. daily for six days; Gemzar 60 mg/kg i.p. x3; 24 hours after last injection
Experimental: PANC-1 tumors were induced by implantation of <1 mm^3 tumor sections from serially passaged PANC-1 xenograft tumors into 4-6 week old female nude mice. When the tumors reached approximately 100-200 mm^3 the TfRscFv-LipA-AS HER-2 complex was i.v. injected into the tail vein daily for six days. The dose of ODN (AS or SC) administered per mouse was 10 mg/kg/injection. For comparison to standard therapy, a separate animal received chemotherapeutic agent Gemzar® (i.p.) only (60 mg/kg/injection) every other day to a total of three injections. In addition, one mouse received the combination of TfRscFv-LipA-AS HER-2 and Gemzar® at the above dose and schedule, and, as a control, one received the combination of complex carrying SC ODN and Gemzar® at the above dose and schedule. All mice were sacrificed 24 hours after the last injection and tumor, liver and lung were harvested as in Example 1. To assess tumor specific targeting in this model HER-2 and the 17 kDa cleaved caspase 3 fragment expression in the tissues was examined by Western Blot analysis Examples 3 and 4. The effect of TfRscFv-LipA-AS HER-2 on induction of the 17 kDa fragment in tumor and tissue samples also screened for HER-2 levels was examined.

PANC-1 xenograft tumors = assay: In vivo chemosensitization: growth of subcutaneous PANC-1 xenograft tumors; set-up: species or system mice; details: complex i.v. three times per week, ODN 9 mg/kg (18 injections); Gemzar i.p. twice weekly 60 mg/kg (12 injections)
Experimental: The efficacy of the TfRscFv-LipA-AS HER-2 in treating PanCa in vivo was assessed using the subcutaneous PANC-1 xenograft mouse model. Athymic nude mice (5-9 mice/group with two tumors/mouse) bearing subcutaneous xenograft tumors of ˜50 mm^3 were treated three times per week with the TfRscFv-LipA-AS HER-2 complex containing ODN at 9 mg/kg/injection. As controls one group of animals received Gemzar® alone, the TfRscFv-LipA-AS HER-2 alone, or the combination of Gemzar® and the complex carrying the SC ODN. Gemzar® was given I.P. twice weekly at 60 mg/kg. The animals received a total of 18 i.v. injections of complex and 12 of Gemzar®.

Nc1ccn([C@@H]2O[C@H](CO)[C@@H](O)C2(F)F)c(=O)n1 [Gemzar®, gemcitabine]
expression of 17 kDa fragment [1]: did not result in the expression of this fragment above background levels | cleaved caspase 3 (appearance of the 17 kDa protein) ([2]; 8 hours post-transfection): not in those cells | cleaved PARP ([2]; 16 hours post-transfection): evident | cleaved caspase 3 (17 kDa fragment) ([2]; 16 hours post-transfection): evident | cleaved PARP [3]: little or no evidence | cleaved caspase 3 (17 kDa subunit) [3]: little or no evidence | induction of the 17 kDa fragment in the tumor [4]: not evident | tumor growth (PANC-1 xenograft tumors): only minimal effect
